The source of these data is publication doi:10.1101/2024.08.19.608619, “Discovery of potent SARS-CoV-2 nsp3 macrodomain inhibitors uncovers lack of translation to cellular antiviral response” (bioRxiv, 2024).

Molecules are shown by their SMILES. In brackets after ≈: the same amount, converted by molar mass. Several values for one entry are separate records, joined by “and”; a condition that tells them apart may be missing. Equal entries are not always repeated. Where two headings read alike, the source gives them in different places.

Data set [1] can be described thus: In vitro mouse hepatocyte stability. The format is in vitro ADME. An excerpt: (§1) Supplement media-1.zip/Hepatocyte_Stability.csv, table | column: clint; t_half
The nature of data set [2]: In vitro dog hepatocyte stability. In kind it is in vitro ADME.
From the text: as §1

Another data set has as its target T1, acetylcholinesterase (h) (Homo sapiens, UniProt P22303).
T1 construct: purchased Eurofins Cerep (SafetyScreen44), recognised from the panel format
The data set can be described thus: In vitro CEREP profiling, acetylcholinesterase (h). Conditions: test compound concentration 10 uM, Enzyme and Cell-based assays. In kind it is biochemical. The text has this:
(§2) Supplement media-1.zip/Safety_Panel_Profile.csv, table | column: perc_inhibition

Another data set has as its target T2, CCK1 (CCKA) (h) (Homo sapiens, UniProt P32238).
T2 construct: purchased Eurofins Cerep (SafetyScreen44), recognised from the panel format
T2 sequence (P32238 1-428): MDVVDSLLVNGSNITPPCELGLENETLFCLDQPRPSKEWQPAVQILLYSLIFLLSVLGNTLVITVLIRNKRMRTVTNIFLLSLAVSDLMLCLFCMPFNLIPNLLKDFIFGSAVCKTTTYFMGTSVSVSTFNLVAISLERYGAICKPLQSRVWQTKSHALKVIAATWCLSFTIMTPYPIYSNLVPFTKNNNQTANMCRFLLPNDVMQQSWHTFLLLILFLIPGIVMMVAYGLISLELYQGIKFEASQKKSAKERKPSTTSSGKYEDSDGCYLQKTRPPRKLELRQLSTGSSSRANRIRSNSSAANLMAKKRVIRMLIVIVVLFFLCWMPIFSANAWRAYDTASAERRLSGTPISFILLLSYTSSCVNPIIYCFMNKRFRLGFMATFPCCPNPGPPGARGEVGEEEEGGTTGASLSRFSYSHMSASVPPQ
The data set can be described thus: In vitro CEREP profiling, CCK1 (CCKA) (h) (agonist radioligand). The format is binding. Conditions: test compound 10 uM.
From the text: as §2

Another data set addresses T3, DRAK1(h) (Homo sapiens, UniProt Q9UEE5).
T3 construct: gene STK17A
T3 sequence (Q9UEE5 1-414): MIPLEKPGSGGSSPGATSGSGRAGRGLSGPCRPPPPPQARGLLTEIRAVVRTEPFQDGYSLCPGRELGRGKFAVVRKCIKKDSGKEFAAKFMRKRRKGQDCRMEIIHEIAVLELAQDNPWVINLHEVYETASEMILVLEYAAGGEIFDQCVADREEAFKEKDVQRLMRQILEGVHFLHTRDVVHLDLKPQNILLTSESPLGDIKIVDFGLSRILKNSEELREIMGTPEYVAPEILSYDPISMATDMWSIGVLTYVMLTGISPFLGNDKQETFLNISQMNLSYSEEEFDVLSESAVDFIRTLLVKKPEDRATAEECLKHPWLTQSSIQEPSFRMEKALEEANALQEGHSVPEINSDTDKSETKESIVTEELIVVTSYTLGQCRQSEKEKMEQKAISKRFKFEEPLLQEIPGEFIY
The data set can be described thus: biochemical. Set-up: In vitro kinase panel profiling, per cent remaining kinase activity at 10 uM. Conditions: atp_concentration=10, read-out: % of control remaining. The text has this: (§3) We derisk potential for off-target activity by profiling the compound in a CEREP panel, a standard secondary pharmacology assessment, as well as a kinase panel to derisk a potential hinge-binding motif in our leads, and a PARP panel to derisk activity against human […]. Reassuringly, the compounds are selective, with the only off-targets being moderate human CHRM2 and KOR receptors activity associated with ASAP-0011198.

Another data set addresses Fyn(h) (Homo sapiens, UniProt P06241). Briefly: biochemical. Set-up: In vitro kinase panel profiling, per cent remaining kinase activity at 10 uM. Conditions: atp_concentration=70, read-out: % of control remaining.
From the text: as §3

Another data set deals with T4, GSK3β(h) (Homo sapiens, UniProt P49841).
T4 construct: gene GSK3B
T4 sequence (P49841 whole entry): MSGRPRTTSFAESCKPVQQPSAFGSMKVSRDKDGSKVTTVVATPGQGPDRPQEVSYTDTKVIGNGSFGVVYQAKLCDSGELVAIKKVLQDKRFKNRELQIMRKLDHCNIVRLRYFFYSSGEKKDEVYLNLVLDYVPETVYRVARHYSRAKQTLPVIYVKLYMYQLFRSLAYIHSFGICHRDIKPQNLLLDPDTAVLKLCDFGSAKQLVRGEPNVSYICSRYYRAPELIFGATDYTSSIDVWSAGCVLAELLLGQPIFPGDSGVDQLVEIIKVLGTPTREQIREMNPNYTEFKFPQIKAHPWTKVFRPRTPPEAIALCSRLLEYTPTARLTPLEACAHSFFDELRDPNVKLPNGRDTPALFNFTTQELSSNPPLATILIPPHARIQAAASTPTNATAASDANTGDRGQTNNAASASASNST
Briefly: biochemical. Further details: In vitro kinase panel profiling, per cent remaining kinase activity at 10 uM. Conditions: atp_concentration=15, read-out: % of control remaining.
From the text: as §3

The target in a further data set is Lyn(h) (Homo sapiens, UniProt P07948). Briefly: biochemical. Further details: In vitro kinase panel profiling, per cent remaining kinase activity at 10 uM. Conditions: atp_concentration=70, read-out: % of control remaining.
Chain of Lyn(h) (P07948 whole entry): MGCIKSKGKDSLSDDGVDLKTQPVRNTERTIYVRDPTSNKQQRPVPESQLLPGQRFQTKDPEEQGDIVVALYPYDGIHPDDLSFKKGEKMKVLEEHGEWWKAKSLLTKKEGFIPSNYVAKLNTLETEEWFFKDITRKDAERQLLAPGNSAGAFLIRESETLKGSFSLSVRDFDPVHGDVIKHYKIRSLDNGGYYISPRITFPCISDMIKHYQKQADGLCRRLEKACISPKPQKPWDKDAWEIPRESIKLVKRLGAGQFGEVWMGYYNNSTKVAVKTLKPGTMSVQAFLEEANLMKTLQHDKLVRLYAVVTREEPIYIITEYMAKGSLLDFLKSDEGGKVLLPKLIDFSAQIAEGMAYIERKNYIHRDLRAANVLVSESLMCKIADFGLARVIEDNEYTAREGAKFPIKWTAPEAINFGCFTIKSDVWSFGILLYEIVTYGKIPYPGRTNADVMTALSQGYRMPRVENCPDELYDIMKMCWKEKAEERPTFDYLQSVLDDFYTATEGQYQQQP
From the text: as §3

The target of the next data set is T5, Mnk2(h) (Homo sapiens, UniProt Q9HBH9).
T5 construct: gene MKNK2
T5 sequence (Q9HBH9 whole entry): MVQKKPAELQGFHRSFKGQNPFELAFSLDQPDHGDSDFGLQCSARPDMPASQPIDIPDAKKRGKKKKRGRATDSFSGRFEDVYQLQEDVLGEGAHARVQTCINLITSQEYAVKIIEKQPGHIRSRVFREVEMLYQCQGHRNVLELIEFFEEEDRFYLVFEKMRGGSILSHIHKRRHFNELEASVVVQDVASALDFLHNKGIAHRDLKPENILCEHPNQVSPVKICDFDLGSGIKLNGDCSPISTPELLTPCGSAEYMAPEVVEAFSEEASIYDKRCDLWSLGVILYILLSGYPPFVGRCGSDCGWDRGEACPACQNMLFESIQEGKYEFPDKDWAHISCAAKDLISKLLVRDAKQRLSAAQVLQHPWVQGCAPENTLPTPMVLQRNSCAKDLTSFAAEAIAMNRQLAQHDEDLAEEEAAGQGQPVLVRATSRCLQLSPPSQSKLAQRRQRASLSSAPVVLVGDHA
Briefly: biochemical. Set-up: In vitro kinase panel profiling, per cent remaining kinase activity at 10 uM. Conditions: atp_concentration=120, read-out: % of control remaining.
From the text: as §3

For a further data set, the target named is T6, PKCα(h) (Homo sapiens, UniProt P17252).
T6 construct: gene PRKCA
Briefly: biochemical. Further details: In vitro kinase panel profiling, per cent remaining kinase activity at 10 uM. Conditions: atp_concentration=45, read-out: % of control remaining.
From the text: as §3

The target of a further data set is T7, PKCθ(h) (Homo sapiens, UniProt Q04759).
T7 construct: gene PRKCQ
T7 sequence (Q04759 whole entry): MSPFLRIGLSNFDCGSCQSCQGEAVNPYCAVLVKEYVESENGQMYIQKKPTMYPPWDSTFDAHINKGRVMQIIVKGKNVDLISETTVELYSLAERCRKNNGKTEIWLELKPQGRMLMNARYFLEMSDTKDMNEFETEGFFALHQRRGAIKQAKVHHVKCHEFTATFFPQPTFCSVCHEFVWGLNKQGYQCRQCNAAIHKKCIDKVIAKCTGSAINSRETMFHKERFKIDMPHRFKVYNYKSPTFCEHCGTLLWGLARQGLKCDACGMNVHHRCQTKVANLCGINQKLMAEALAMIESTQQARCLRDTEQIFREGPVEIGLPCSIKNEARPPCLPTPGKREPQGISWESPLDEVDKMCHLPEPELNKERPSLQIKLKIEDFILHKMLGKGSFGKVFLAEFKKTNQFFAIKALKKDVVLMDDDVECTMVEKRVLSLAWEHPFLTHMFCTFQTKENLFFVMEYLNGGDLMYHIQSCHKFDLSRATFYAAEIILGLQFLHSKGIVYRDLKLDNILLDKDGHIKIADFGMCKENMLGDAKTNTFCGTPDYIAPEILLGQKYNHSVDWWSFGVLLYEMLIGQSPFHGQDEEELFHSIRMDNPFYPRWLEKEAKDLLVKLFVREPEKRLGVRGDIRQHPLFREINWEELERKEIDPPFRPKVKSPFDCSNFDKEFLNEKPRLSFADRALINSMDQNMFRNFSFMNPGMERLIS
The data set can be described thus: biochemical. Further details: In vitro kinase panel profiling, per cent remaining kinase activity at 10 uM. Conditions: atp_concentration=15, read-out: % of control remaining.
From the text: as §3

The next data set concerns the target SRPK1(h) (Homo sapiens, UniProt Q96SB4). Briefly: biochemical. Set-up: In vitro kinase panel profiling, per cent remaining kinase activity at 10 uM. Conditions: atp_concentration=10, read-out: % of control remaining.
From the text: as §3

Data set [3] in a line: In vitro kinetic solubility. Conditions: for solubility_mean: In vitro kinetic solubility, ph 7.4.
Data set [4] is described as follows: Permeability Papp (AB) MDR1/MDCKII. Conditions: for papp_a_to_b_mean / papp_b_to_a_mean / perc_recovery_a_to_b_mean / perc_recovery_b_to_a_mean: In vitro MDR1-MDCKII permeability; for papp_b_to_a_mean: B to A; for perc_recovery_a_to_b_mean / perc_recovery_a_to_b_inhibitor_mean: recovery A to B; for perc_recovery_b_to_a_mean / perc_recovery_b_to_a_inhibitor_mean: recovery B to A.

Data set [5] in a line: Hepatic microsomal stability, HLM. In kind it is in vitro ADME, human. Conditions: for perc_remaining_no_cofactor: no cofactor.
[6] abbreviates: MDR1-MDCKII, with inhibitor Cyclosporin A.
Setting [7] is: MDR1-MDCKII, with inhibitor Verapamil.
Setting [8] is: In vitro human liver microsomal stability.

Chain of Fyn(h) (P06241 whole entry): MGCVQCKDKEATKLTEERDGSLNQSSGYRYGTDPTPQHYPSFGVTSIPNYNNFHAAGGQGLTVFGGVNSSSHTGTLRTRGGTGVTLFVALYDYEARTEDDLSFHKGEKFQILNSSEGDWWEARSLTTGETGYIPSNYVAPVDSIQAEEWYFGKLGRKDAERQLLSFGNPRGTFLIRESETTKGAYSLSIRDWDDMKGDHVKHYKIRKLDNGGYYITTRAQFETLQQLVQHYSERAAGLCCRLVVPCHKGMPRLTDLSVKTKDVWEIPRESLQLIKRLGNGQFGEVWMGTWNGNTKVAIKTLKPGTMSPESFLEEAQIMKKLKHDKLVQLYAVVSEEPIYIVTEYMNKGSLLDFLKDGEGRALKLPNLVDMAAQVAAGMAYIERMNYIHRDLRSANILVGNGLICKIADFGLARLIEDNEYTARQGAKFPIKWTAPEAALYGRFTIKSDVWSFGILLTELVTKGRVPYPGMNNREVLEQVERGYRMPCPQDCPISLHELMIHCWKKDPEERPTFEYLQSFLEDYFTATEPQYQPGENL
Chain of SRPK1(h) (Q96SB4 whole entry): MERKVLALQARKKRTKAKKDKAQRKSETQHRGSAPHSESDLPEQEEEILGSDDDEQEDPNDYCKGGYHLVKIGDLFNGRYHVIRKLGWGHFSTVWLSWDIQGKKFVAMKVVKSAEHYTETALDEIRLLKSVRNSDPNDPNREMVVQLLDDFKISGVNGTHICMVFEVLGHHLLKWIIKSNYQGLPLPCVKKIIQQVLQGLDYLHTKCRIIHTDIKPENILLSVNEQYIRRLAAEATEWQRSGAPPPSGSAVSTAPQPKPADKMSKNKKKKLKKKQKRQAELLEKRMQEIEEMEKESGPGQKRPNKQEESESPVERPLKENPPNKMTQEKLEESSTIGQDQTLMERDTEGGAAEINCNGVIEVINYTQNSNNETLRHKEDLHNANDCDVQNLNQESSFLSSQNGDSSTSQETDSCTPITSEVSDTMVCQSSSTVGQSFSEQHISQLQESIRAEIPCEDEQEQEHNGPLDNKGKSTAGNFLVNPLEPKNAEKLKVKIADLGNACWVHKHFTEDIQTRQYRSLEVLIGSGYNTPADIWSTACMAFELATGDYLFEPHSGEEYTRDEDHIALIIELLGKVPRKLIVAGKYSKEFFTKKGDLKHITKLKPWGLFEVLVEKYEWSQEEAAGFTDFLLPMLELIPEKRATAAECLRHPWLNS
T1 sequence (P22303 32-614): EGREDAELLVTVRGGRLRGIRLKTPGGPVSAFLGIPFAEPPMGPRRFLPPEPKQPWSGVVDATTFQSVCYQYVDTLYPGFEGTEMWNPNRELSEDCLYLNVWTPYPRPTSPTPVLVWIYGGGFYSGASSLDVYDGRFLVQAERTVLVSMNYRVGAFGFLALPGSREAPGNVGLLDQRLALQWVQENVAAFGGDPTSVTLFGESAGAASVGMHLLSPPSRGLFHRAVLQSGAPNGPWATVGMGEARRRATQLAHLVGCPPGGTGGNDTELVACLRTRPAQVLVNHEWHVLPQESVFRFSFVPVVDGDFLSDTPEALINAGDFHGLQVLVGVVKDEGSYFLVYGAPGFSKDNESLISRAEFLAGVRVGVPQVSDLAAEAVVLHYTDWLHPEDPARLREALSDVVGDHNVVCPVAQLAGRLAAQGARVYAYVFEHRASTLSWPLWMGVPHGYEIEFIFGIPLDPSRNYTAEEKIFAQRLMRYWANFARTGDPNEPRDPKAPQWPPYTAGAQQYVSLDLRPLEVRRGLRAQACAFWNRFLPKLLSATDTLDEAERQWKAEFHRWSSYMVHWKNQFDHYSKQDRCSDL

Turning to `CC(C)[C@@H](Nc1ncnc2[nH]c(-c3cnn(C)c3C#N)cc12)c1ccc2c(n1)OCCO2` [ASAP-0010716], the values for the clint in data set [1] and in [2] were 217.0 uL/min/1E6 cells and 3.91 uL/min/1E6 cells, respectively. For the same compound, the t_half turned out to be 3.19 min in data set [1] and 177.0 min in [2]. Moreover, the “perc_inhibition: % inhibition of control enzyme activity, acetylcholinesterase (h)” value on acetylcholinesterase (h) is reported as 22%. For the same compound, on CCK1 (CCKA) (h), the “perc_inhibition (% inhibition of the binding of a ligand specific for each target)” value was 20%. Further, the remaining activity at 10 µM at DRAK1(h) (batch_name=ASAP-0010716-002) was determined as 108%; at Fyn(h) (batch_name=ASAP-0010716-002) it was 55%; at GSK3β(h) (batch_name=ASAP-0010716-002) it was 101%; at Lyn(h) (batch_name=ASAP-0010716-002), 96%; at Mnk2(h) (batch_name=ASAP-0010716-002) it was 83%; on PKCα(h) (batch_name=ASAP-0010716-002), 99%. In addition, the values for the remaining activity at 10 µM at PKCθ(h) (batch_name=ASAP-0010716-002) and on SRPK1(h) (batch_name=ASAP-0010716-002) were 111% and 104%, respectively. The solubility_mean in [3] was found to be 50 µM (≈ 21.5 µg/mL). Also, the papp_a_to_b_mean in data set [4] (A to B, mean) is 14.6 ×10⁻⁶ cm/s; in [4] (A to B, no inhibitor), 1.05 ×10⁻⁶ cm/s and 1.02 ×10⁻⁶ cm/s and 0.676 ×10⁻⁶ cm/s. The papp_b_to_a_mean in data set [4] (no inhibitor) was 6.5 ×10⁻⁶ cm/s and 6.1 ×10⁻⁶ cm/s and 8.26 ×10⁻⁶ cm/s. Besides, the perc_recovery_a_to_b_mean in data set [4] (mean) is 85.7%; in data set [4] (no inhibitor) it was 67.5% and 74.0% and 87.7%. Also, the perc_recovery_b_to_a_mean in data set [4] (no inhibitor) was 70.0% and 84.4% and 95.1%. Moreover, the papp_a_to_b_inhibitor_mean in [4] (MDR1-MDCKII, A to B, with inhibitor Cyclosporin A) came to 4.51 ×10⁻⁶ cm/s. In addition, the perc_recovery_a_to_b_inhibitor_mean was 115.0% and 75.2% in data set [4] (setting [6]); 107.0% in data set [4] (setting [7]). In addition, the perc_recovery_b_to_a_inhibitor_mean was 106.0% and 78.2% in [4] (setting [6]); 88.6% in data set [4] (setting [7]).
The term microsomal CLint denotes the capacity of the preparation to metabolise the compound, expressed as a volume cleared per time. The low end stands for slow turnover, the high end for rapid turnover. Broadly, the inhibition is the relative decrease from the control value, in per cent. The solubility (kinetic) is solubility judged after dilution from a stock solution rather than from solid. By solubility is commonly meant the concentration that dissolves in the medium under given conditions. Lower therefore signals little dissolved substance. Usually Papp A→B stands for the apparent permeability from the apical to the basolateral side of a cell layer. With `Cc1nn(C)cc1-c1cc2c(NC(c3ccc4c(c3)S(=O)(=O)CCC4)C(C)C)ncnc2[nH]1` (stereo not drawn) [ASAP-0011446], in data set [5] (HLM/MLM), the “clearance (metabolic stability), in words” value is recorded as “moderate-to-high clearance”. In [5] (setting [8]), the perc_remaining was 1.0%. The t_half in data set [5] (setting [8]) stood at 6.1 min. Further, the perc_remaining_no_cofactor in [5] (setting [8]) was 113.0%. In [5] (liver microsomes, In vitro human liver microsomal stability), this compound had a microsomal CLint of 273 µL/min/mg. Moreover, the inhibition at 10 µM was 13% at acetylcholinesterase (h) (read-out: perc_inhibition: % inhibition of control enzyme activity, acetylcholinesterase (h)) and -8% at CCK1 (CCKA) (h) (read-out: perc_inhibition (% inhibition of the binding of a ligand specific for each target)). Further, the remaining activity at 10 µM at DRAK1(h) (batch_name=ASAP-0011446-002) came out at 111%; on Fyn(h) (batch_name=ASAP-0011446-002) it was 32%; on GSK3β(h) (batch_name=ASAP-0011446-002), 96%; on Lyn(h) (batch_name=ASAP-0011446-002) it was 48%; on Mnk2(h) (batch_name=ASAP-0011446-002) it was 99%; at PKCα(h) (batch_name=ASAP-0011446-002), 93%. The remaining activity at 10 µM worked out at 106% at PKCθ(h) (batch_name=ASAP-0011446-002) and 104% at SRPK1(h) (batch_name=ASAP-0011446-002). For the same compound, the solubility (kinetic) in data set [3] stood at 65 µM (≈ 30.2 µg/mL). Moreover, in [3] (pH 7.4), the solubility was found to be 65 µM (≈ 30.2 µg/mL). The papp_a_to_b_mean in data set [4] (A to B, mean) stood at 4.36 ×10⁻⁶ cm/s. The perc_recovery_a_to_b_mean is 77.0% in data set [4] (mean) and 69.7% in data set [4] (no inhibitor). This compound also gave a perc_recovery_b_to_a_mean in data set [4] (no inhibitor) of 63.5%. In data set [4] (setting [7]), the perc_recovery_a_to_b_inhibitor_mean is on record as 87.7%. In addition, in data set [4] (setting [7]), the perc_recovery_b_to_a_inhibitor_mean is on record as 93.0%. Moreover, the Papp A→B in [4] (dog, MDCK-MDR1, Papp (AB) MDR1/MDCKII, A to B) was determined as 4.4 ×10⁻⁶ cm/s.
As to `CC(C)[C@H](Nc1ncnc2[nH]c(-c3cnn(C)c3C#N)cc12)c1ccc2c(n1)OCCO2` [ASAP-0010715], the clint in data set [5] (setting [8]) is 17.0 µL/min/mg; in data set [1] it was 91.6 uL/min/1E6 cells; in [2], 3.01 uL/min/1E6 cells. The compound also gave a perc_remaining in data set [5] (setting [8]) of 78.0%. Also, the figures for the t_half in [5] (setting [8]), in [1] and in [2] were 100.0 min, 7.57 min and 231.0 min, respectively. In data set [5] (setting [8]), the perc_remaining_no_cofactor was 116.0%. Moreover, the “perc_inhibition: % inhibition of control enzyme activity, acetylcholinesterase (h)” value at acetylcholinesterase (h) amounted to 15%. Further, the “perc_inhibition (% inhibition of the binding of a ligand specific for each target)” value at CCK1 (CCKA) (h) is reported as 1%. Moreover, the remaining activity at 10 µM on DRAK1(h) (batch_name=ASAP-0010715-002) is 105%; at Fyn(h) (batch_name=ASAP-0010715-002), 80%; at GSK3β(h) (batch_name=ASAP-0010715-002), 98%; at Lyn(h) (batch_name=ASAP-0010715-002), 79%; on Mnk2(h) (batch_name=ASAP-0010715-002) it was 95%; on SRPK1(h) (batch_name=ASAP-0010715-002), 111%. For the same compound, the solubility_mean in [3] worked out at 53 µM (≈ 22.8 µg/mL). Further, the papp_b_to_a_mean in data set [4] (no inhibitor) was 5.98 ×10⁻⁶ cm/s. For the same compound, the perc_recovery_a_to_b_mean in [4] (no inhibitor) is 70.1% and 79.9%. For the same compound, the perc_recovery_b_to_a_mean in [4] (no inhibitor) turned out to be 76.7%. The perc_recovery_a_to_b_inhibitor_mean in data set [4] (setting [6]) turned out to be 75.0%. Also, the perc_recovery_b_to_a_inhibitor_mean in data set [4] (setting [6]) is listed as 76.7%.
